According to patent publication US9793566B2, “Aqueous electrolytes for redox flow battery systems” (Battelle Memorial Institute, priority 2015, dated 2017):
In brackets after ≈: the same amount, converted by molar mass.

Assays:
[1] = Cyclic voltammetry comparison of N-methyl thiourea and N,N′-dimethyl thiourea catholytes; type: physicochemical; conditions: 200 mM in 1 M NaCl, scan rate 0.05 V/s
Procedure: Aqueous catholytes comprising 200 mM MTU and 200 mM DMTU were compared. Each catholyte also included 1 M NaCl. Cyclic voltammetry was performed under the following conditions: initial E (V)=0, high E (V)=1, low E (V)=−0.75, initial P/N=P, scan rate (V/s)=0.05, segment=7, sample interval (V)=0.001, quiet time (s)=2, sensitivity (A/V)=0.001.

[2] = physchem; conditions: aqueous buffer
[3] = Electrolyte stability: repeated cycling overnight, cyclic voltammograms before and after; type: physicochemical; conditions: 300 mM DMTU, 0.45 M HCl, no significant peak changes in the cyclic voltammograms
Text: Cyclic voltammograms were obtained before and after the overnight test—initial E (V)=0, high E (V)=1, low E (V)=−0.8, initial P/N=P, scan rate (V/s)=0.05, segment=3, sample interval (V)=0.001, quiet time (s)=2, […].

[4] = Cyclic voltammetry, redox couple potential; type: physicochemical; conditions: neutral aqueous solution
Procedure: Cyclic voltammetry was performed at 0.05 V/s with a glassy carbon working electrode.

solubility [2] [mM] | stability in acid solutions [3] | Structure (SMILES) | kinetics, reversibility and overpotential compared with MTU [1] | one electron redox couple [4] [V vs. SHE]
~4000 (≈ 417 mg/mL) | good stability | CNC(=S)NC [DMTU, N,N′-dimethyl thiourea] | better kinetics, with better reversibility and a lower overpotential | –
– | – | CC1(C)CC(O)CC(C)(C)N1[O] [HTMPO, 4-hydroxy-2,2,6,6-tetramethylpiperidine 1-oxyl] | – | 0.75
